Test results taken from ChEMBL document CHEMBL1955751, “Structure-activity relationship of the 7-hydroxy benzimidazole analogs as glycogen synthase kinase 3β inhibitor” (Bioorg Med Chem Lett, 2012).

What was measured:
[1] = Cytotoxicity against human RD cells by MTS assay; type: cell-based; conditions: read-out: CCIC50
[2] = target: T1, Glycogen synthase kinase-3 beta (Homo sapiens, UniProt P49841); experiment: Inhibition of GSK3-beta
Target sequence in this assay (P49841 whole entry): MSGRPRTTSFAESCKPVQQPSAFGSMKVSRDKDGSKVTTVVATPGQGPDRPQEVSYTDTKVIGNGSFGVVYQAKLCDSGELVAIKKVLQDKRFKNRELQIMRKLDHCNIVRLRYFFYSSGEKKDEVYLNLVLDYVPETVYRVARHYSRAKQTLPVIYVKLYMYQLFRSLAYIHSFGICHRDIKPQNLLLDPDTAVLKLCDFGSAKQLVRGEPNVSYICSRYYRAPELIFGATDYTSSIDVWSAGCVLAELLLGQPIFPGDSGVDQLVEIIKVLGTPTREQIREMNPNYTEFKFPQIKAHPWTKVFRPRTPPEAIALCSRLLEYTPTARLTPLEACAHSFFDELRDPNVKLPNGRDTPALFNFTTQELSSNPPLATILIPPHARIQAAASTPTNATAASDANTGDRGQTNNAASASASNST

[3] = Ratio of CCIC50 for human RD cells to EC50 for GSK3-beta in human RD cells
[4] = target: T1, Glycogen synthase kinase-3 beta; experiment: Inhibition of GSK3-beta in human RD cells; type: cell-based
Target sequence in this assay (P49841 whole entry): as above

[5] = target: T1, Glycogen synthase kinase-3 beta; experiment: Inhibition of GSK3-beta in human RD cells assessed as glycogen synthase activation measured after 24 hrs under serum starving condition; type: cell-based
Target sequence in this assay (P49841 whole entry): as above

[6] = target: Vascular endothelial growth factor receptor 2 (Homo sapiens) (UniProt P35968); experiment: Inhibition of KDR assessed as residual activity at 5 uM
[7] = target: Mitogen-activated protein kinase 1 (Homo sapiens) (UniProt P28482); experiment: Inhibition of ERK2 assessed as residual activity at 5 uM
[8] = target: Cyclin-dependent kinase 1 (Homo sapiens) (UniProt P06493); experiment: Inhibition of CDK1 assessed as residual activity at 5 uM
[9] = target: T2, Inhibitor of nuclear factor kappa-B kinase subunit beta (Homo sapiens) (UniProt O14920); experiment: Inhibition of IKK-beta assessed as residual activity at 5 uM
T2 sequence (whole entry): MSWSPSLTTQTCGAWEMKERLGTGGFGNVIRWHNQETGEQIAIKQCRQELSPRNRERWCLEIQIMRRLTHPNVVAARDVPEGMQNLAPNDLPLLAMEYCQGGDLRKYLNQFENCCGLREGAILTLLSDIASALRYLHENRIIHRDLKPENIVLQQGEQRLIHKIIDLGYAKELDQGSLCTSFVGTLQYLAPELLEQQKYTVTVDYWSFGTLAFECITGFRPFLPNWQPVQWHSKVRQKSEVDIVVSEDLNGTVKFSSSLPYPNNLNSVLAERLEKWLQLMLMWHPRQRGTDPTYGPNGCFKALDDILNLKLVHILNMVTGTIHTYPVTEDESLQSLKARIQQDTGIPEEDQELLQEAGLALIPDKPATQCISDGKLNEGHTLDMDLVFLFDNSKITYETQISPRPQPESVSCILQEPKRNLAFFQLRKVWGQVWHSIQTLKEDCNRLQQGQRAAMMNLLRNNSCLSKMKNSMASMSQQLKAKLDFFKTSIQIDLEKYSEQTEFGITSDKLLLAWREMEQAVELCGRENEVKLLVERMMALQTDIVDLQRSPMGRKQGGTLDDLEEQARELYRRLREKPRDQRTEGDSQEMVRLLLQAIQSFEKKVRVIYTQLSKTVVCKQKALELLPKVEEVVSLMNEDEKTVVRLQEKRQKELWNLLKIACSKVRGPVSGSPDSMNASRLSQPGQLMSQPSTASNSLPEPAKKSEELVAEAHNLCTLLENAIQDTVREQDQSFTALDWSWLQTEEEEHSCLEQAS

[10] = Inhibition of AKT assessed as residual activity at 5 uM
[11] = target: T1, Glycogen synthase kinase-3 beta; experiment: Inhibition of GSK3-beta assessed as residual activity at 5 uM
Target sequence in this assay (P49841 whole entry, looked up): as the sequence (P49841 whole entry) above

[12] = target: Cyclin-dependent kinase 4 (Homo sapiens) (UniProt P11802); experiment: Inhibition of CDK4 assessed as residual activity at 5 uM
[13] = target: Mitogen-activated protein kinase 3 (Homo sapiens) (UniProt P27361); experiment: Inhibition of ERK1 assessed as residual activity at 5 uM
Chain of Mitogen-activated protein kinase 3 (Homo sapiens) (P27361 whole entry): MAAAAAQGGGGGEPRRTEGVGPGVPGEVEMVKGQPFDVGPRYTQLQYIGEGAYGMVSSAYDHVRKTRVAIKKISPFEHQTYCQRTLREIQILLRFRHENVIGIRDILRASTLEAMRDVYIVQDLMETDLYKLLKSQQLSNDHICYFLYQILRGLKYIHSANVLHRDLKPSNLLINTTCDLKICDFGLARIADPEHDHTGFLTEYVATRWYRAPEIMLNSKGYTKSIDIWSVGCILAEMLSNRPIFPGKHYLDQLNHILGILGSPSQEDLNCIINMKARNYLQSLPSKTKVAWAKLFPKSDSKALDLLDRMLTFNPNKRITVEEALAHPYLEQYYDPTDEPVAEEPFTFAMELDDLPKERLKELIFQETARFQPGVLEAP

Chain of Cyclin-dependent kinase 1 (Homo sapiens) (P06493 whole entry, looked up): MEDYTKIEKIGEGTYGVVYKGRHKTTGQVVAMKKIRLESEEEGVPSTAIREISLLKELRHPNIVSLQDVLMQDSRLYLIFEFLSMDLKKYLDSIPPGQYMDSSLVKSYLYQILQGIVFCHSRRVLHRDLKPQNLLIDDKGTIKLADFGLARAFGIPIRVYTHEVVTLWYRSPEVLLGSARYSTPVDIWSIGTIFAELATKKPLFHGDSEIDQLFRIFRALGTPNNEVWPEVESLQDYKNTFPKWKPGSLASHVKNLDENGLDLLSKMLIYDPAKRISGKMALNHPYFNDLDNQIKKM
Chain of Cyclin-dependent kinase 4 (Homo sapiens) (P11802 whole entry): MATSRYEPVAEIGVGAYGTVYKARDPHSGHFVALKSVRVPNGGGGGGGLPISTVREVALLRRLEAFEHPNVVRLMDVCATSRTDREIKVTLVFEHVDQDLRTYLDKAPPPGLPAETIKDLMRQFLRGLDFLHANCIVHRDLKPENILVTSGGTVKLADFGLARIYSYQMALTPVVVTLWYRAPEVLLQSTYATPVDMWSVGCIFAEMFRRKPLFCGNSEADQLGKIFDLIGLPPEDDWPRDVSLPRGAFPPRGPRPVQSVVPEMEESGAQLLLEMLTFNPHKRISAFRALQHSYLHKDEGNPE
Chain of Mitogen-activated protein kinase 1 (Homo sapiens) (P28482 whole entry): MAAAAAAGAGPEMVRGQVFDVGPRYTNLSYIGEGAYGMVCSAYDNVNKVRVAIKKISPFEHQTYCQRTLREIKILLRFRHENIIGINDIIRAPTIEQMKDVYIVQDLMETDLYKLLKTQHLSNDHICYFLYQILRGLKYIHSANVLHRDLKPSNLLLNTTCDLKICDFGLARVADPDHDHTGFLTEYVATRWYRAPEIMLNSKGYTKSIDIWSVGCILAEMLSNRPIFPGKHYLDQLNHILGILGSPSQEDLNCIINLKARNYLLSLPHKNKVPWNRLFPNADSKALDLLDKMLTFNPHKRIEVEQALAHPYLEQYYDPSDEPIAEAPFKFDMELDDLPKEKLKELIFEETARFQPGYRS
Chain of Vascular endothelial growth factor receptor 2 (Homo sapiens) (P35968 whole entry): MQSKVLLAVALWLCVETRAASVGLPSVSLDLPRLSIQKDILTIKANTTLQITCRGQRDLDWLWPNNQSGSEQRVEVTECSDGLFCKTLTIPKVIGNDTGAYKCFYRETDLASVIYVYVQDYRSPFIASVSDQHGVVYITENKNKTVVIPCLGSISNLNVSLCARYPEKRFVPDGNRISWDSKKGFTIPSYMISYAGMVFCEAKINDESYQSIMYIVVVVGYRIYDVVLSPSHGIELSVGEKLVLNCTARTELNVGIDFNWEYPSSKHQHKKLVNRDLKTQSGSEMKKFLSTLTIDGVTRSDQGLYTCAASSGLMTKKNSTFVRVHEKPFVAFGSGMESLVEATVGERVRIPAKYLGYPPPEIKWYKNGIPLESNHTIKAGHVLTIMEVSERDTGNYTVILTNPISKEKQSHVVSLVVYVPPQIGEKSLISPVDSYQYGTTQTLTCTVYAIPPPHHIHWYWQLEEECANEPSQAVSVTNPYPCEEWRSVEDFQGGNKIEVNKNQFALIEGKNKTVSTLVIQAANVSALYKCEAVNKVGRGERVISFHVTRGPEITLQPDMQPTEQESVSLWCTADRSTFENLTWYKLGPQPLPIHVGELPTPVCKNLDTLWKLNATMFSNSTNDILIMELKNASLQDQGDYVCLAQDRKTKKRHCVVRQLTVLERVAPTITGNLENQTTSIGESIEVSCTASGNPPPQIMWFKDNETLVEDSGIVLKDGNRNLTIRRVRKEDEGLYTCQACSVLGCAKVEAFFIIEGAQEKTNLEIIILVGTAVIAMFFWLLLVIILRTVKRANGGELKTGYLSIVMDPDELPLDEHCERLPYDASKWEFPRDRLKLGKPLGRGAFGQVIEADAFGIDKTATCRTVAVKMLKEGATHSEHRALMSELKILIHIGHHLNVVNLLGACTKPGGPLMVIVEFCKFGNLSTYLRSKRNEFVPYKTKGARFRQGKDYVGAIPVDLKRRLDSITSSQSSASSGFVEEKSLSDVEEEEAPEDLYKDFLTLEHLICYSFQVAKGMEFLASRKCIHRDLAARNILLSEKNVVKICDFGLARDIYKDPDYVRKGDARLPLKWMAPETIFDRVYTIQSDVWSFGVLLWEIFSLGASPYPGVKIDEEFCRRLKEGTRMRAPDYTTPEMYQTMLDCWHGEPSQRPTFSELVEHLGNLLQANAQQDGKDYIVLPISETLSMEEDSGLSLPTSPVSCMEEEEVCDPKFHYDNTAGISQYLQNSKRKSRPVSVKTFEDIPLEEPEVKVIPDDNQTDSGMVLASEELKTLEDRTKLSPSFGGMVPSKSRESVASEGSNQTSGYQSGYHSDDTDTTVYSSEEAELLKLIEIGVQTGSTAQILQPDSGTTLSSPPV

Structure (SMILES) | IC50 [2] [nM] | EC50 [4] [nM] | Activity [11] [%] | CC50 [1] [µM] | Ratio [3] | further results
O=C(NCCc1ccc([N+](=O)[O-])cc1)c1ccc(O)c2nc(Cc3ccccc3)[nH]c12 | 2000 |  |  |  |  | 
CS(=O)(=O)Nc1ccc(CCNC(=O)c2ccc(O)c3[nH]c(C4CCCC4)nc23)cc1 | 44 | 2700 |  |  |  | 
Cc1nc2c(O)ccc(C(=O)NCCc3ccc(NS(C)(=O)=O)cc3)c2[nH]1 |  | 21000 |  |  |  | 
CS(=O)(=O)Nc1ccc(CCNC(=O)c2ccc(O)c3nc(-c4ccc(F)cc4F)[nH]c23)cc1 |  | 580 |  |  |  | EC50 [5]: 13 nM
CS(=O)(=O)Nc1ccc(CCNC(=O)c2ccc(O)c3[nH]c(-c4ccc(F)cc4F)nc23)cc1 |  |  | -0.58 |  |  | Activity [6]: 114%; Activity [7]: 91.4%; Activity [9]: 93.1%; Activity [12]: 49.2%; Activity [13]: 73.4%
Cc1ccc(S(=O)(=O)Nc2ccc(CCNC(=O)c3ccc(O)c4[nH]c(Cc5ccccc5)nc34)cc2)cc1 | 2800 |  | 36 |  |  | 
O=C(O)COc1cccc(CCCNC(=O)c2ccc(O)c3nc(-c4ccc(Cl)cc4)[nH]c23)c1 | 31 | 250 |  | 17 |  | EC50 [5]: 80 nM
NC(=O)c1ccc(O)c2[nH]c(Cc3ccccc3)nc12 |  |  | 75 |  |  | 
Cc1ccc(S(=O)(=O)Nc2ccc(CCNC(=O)c3ccc(O)c4[nH]c(-c5ccc(F)cc5)nc34)cc2)cc1 |  | 95 |  | 17.5 | 184 | 
O=C(NCc1cccc(O)c1)c1ccc(O)c2[nH]c(Cc3ccccc3)nc12 |  |  | 53 |  |  | 
CS(=O)(=O)Nc1ccc(CCNC(=O)c2ccc(O)c3nc(C4CC4)[nH]c23)cc1 | 140 | 4800 |  |  |  | 
O=C(NCCc1ccc([N+](=O)[O-])cc1)c1ccc(O)c2[nH]c(Cc3ccccc3)nc12 |  |  | 32 |  |  | 

More lines, main results first:

IC50 [2] [nM] | EC50 [4] [nM] | Activity [11] [%] | Structure (SMILES) | CC50 [1] [µM] | Ratio [3] | further results
8 | 34 |  | O=C(NCCCn1cnc(Cl)c1Cl)c1ccc(O)c2[nH]c(-c3cccs3)nc12 | > 100 | >2941 | 
 | 490 |  | O=C(NCCCn1ccnc1)c1ccc(O)c2nc(-c3ccc(F)c(Cl)c3)[nH]c12 | > 100 |  | EC50 [5]: 100 nM
7 | 120 |  | CS(=O)(=O)Nc1ccc(CCNC(=O)c2ccc(O)c3[nH]c(-c4ccc(Cl)cc4)nc23)cc1 | 28 | 233 | 
 |  | 0.3 | O=C(O)COc1cccc(CCCNC(=O)c2ccc(O)c3[nH]c(-c4ccc(Cl)cc4)nc23)c1 |  | 68 | Activity [6]: 54.5%; Activity [7]: 104%; Activity [8]: 90.9%; Activity [9]: 87.3%; Activity [10]: 100%; Activity [12]: 58.6%; Activity [13]: 80%
 |  | 0.9 | CCN1CCN(C(=O)c2ccc(CCNC(=O)c3ccc(O)c4[nH]c(-c5cccs5)nc34)cc2)CC1 |  | 127 | Activity [6]: 60.8%; Activity [7]: 80.7%; Activity [8]: 70.4%; Activity [9]: 72.7%; Activity [10]: 96%; Activity [12]: 68.2%; Activity [13]: 80.9%
 |  | 1 | O=C(NCCCn1ccnc1)c1ccc(O)c2[nH]c(-c3ccc(F)c(Cl)c3)nc12 |  | >204 | Activity [6]: 85.3%; Activity [7]: 76%; Activity [8]: 71.3%; Activity [9]: 80%; Activity [10]: 83.9%; Activity [12]: 52.4%; Activity [13]: 66.5%
10 | 50 |  | O=C(NCCCn1cnc(Cl)c1Cl)c1ccc(O)c2nc(-c3ccco3)[nH]c12 | 70 |  | EC50 [5]: 40 nM
 |  | 63 | CCCCNC(=O)c1ccc(O)c2[nH]c(Cc3ccccc3)nc12 |  |  | 
6 | 110 |  | O=C(NCCCn1cnc(Cl)c1Cl)c1ccc(O)c2nc(-c3ccc(Cl)cc3Cl)[nH]c12 | 60 |  | EC50 [5]: 170 nM
46 | 400 |  | CCN1CCN(C(=O)c2ccc(CCNC(=O)c3ccc(O)c4nc(-c5cccs5)[nH]c34)cc2)CC1 | 51 |  | 
15 | 240 |  | O=C(NCCCn1ccnc1)c1ccc(O)c2[nH]c(-c3ccc(Cl)cc3Cl)nc12 | 45 | 187 | 
 |  | -1.7 | O=C(NCCCn1cnc(Cl)c1Cl)c1ccc(O)c2[nH]c(-c3ccco3)nc12 |  | 1400 | Activity [6]: 83.6%; Activity [7]: 70.6%; Activity [8]: 65.2%; Activity [9]: 74.7%; Activity [10]: 92.3%; Activity [12]: 38.6%; Activity [13]: 53.9%
20 | 230 |  | CS(=O)(=O)Nc1ccc(CCNC(=O)c2ccc(O)c3[nH]c(-c4ccc(F)cc4Cl)nc23)cc1 |  |  | 
50 | 310 |  | Cc1cn(CCCNC(=O)c2ccc(O)c3[nH]c(-c4cccs4)nc23)cn1 | > 100 | >322 | 
110 | 25000 |  | CS(=O)(=O)Nc1ccc(CCNC(=O)c2ccc(O)c3nc(-c4ccncc4)[nH]c23)cc1 |  |  | 
1600 | 3900 | 18 | CS(=O)(=O)Nc1ccc(CCNC(=O)c2ccc(O)c3[nH]c(Cc4ccccc4)nc23)cc1 |  |  | 
 |  | 0 | O=C(NCCCn1cnc(Cl)c1Cl)c1ccc(O)c2[nH]c(-c3ccc(Cl)cc3Cl)nc12 |  | 545 | Activity [6]: 109%; Activity [7]: 102%; Activity [9]: 80.7%; Activity [12]: 74.9%; Activity [13]: 97.9%
 | 400 |  | CS(=O)(=O)Nc1ccc(CCNC(=O)c2ccc(O)c3[nH]c(-c4ccc(F)cc4)nc23)cc1 |  |  | 
